Test results: patent US10851075B2, “Stat3 pathway inhibitors and cancer stem cell inhibitors” (Sumitomo Dainippon Pharma Oncology, Inc., priority 2007, dated 2020)
“Also recorded” adds a separate entry of the source. Where two headings read alike, the source gives them in different places.

What was measured:
DU145 cells = assay: MTT cell viability, DU145; assay type: cell-based; details: Homo sapiens, DU-145, MTT at 24 hours
Excerpt: (§1) Cell Culture: HeLa, DU145, H1299, DLD1, SW480, A549, MCF7, LN18, HCT116, HepG2, Paca2, Panel, LNcap, FaDu, HT29, and PC3 cells (ATCC, Manassas, Va.) were maintained in Dulbecco's Modified Eagle Medium (DMEM) (Invitrogen, Carlsbad, Calif.) supplemented with 10% fetal bovine serum (MS) (Gemini Bio-Products, West Sacramento, Calif.) and 5% penicillin/streptomycin/amphotercin B (Invitrogen).
(§2) Cell Viability Determination: For 3-(4,5 dimethylthiazol-2-yl)-2,5-diphenyltetrazolium (MTT) (Sigma-Aldrich, St. Louis, Mo.) analysis, cells were plated in 96 well plates at 10,000 cells per well. 24 hours after plating, compound was added to cells at indicated doses. 22 hours following compound addition, MTT was added to each well (0.5 mg/ml, final concentration) and plates were incubated for an additional 2 hours at 37° C., Medium was then aspirated and the formazan product was solubilized in 100 μl of isopropyl alcohol. The absorbance of each well was measured at 570 nm using a microplate reader.
(§3) Identification of compounds that are apoptotic to a broad spectrum of cancer cells in vitro. Cells plated in 96 well plates and treated with indicated compounds were subjected to MTT analysis at 24 hours following compound treatment to determine cell viability.

Panc1 cells = assay: MTT cell viability, Panc1; assay type: cell-based; details: Homo sapiens, PANC-1; Panc1, Pancreas; MTT at 24 hours; Table 3
Excerpt: as §1, §2, §3

MCF7 cells = assay: MTT cell viability, MCF7; assay type: cell-based; details: Homo sapiens; MCF7, Breast; MTT at 24 hours; Table 3
Excerpt: as §1, §2, §3

HCT116 cells = assay: MTT cell viability, HCT116; assay type: cell-based; details: Homo sapiens, HCT-116; HCT116, Colon; MTT at 24 hours; Table 3
Excerpt: as §1, §2, §3

PC3 cells = assay: MTT cell viability, PC3; assay type: cell-based; details: Homo sapiens, PC-3; PC3, Prostate; MTT at 24 hours; Table 3
Excerpt: as §1, §2, §3

SW480 cells = assay: MTT cell viability, SW480; assay type: cell-based; details: Homo sapiens; SW480, Colon; MTT at 24 hours; Table 3
Excerpt: as §1, §2, §3

Paca2 cells = assay: MTT cell viability, Paca2; assay type: cell-based; details: PaCa-2; Paca2, Pancreas; MTT at 24 hours; Table 3
Excerpt: as §1, §2, §3

HeLa cells = assay: MTT cell viability, HeLa; assay type: cell-based; details: Homo sapiens, MTT at 24 hours
Excerpt: as §1, §2, §3

A549 cells = assay: MTT cell viability, A549; assay type: cell-based; details: Homo sapiens; A549, Lung; MTT at 24 hours following compound treatment; Table 3
Excerpt: as §1, §2, §3

HT29 cells = assay: MTT cell viability, HT29; assay type: cell-based; details: Homo sapiens, HT-29; HT29, Colon; MTT at 24 hours; Table 3
Excerpt: as §1, §2, §3

[1] = test system: Stat3 transcription activity; assay: Stat3-luciferase (Stat3-Luc) reporter assay in HeLa cells, OSM stimulated; assay type: cell-based; details: Homo sapiens, compound 30 minutes before 25 ng/ml oncostatin M, 6 hours, read-out: IC50 in Stat3-Luc assays
Method: Luciferase Reporter Assay: HeLa Cells were co-transfected with Stat3-luciferase (Stat3-Luc) reporter vector (Panomics, Fremont, Calif.) and Renilla luciferase (Promega, Madison, Wis.) using Lipofectamine 2000 as described by the manufacturer (Invitrogen). Following transfection, cells were maintained in medium containing 0.5% FBS for 24 hours. Cells were then treated with the indicated compound for 30 minutes prior to the addition of 25 ng/ml oncostatin M (OSM) (R&D Systems, Minneapolis, Minn.) to the medium. 6 hours following OSM addition, cells were harvested and levels of firefly and renilla luciferase were measured using the Dual-Glo Luciferase Assay System as described by the manufacturer (Promega).
Inhibition of Stat3 transcription activity. Compounds were tested for their ability to inhibit Stat3 transcription activation activity in cells using a Stat3-luciferase (Stat3-luc) reporter construct. Cells transfected with Stat3-luc were cultured in reduced serum medium prior to addition of indicated compound for 30 minutes. Cells were then stimulated with 25 ng/ml oncostatin (OSM) for 6 hours followed by detection of Stat3-luc reporter activity.

DLD1 cells = assay: MTT cell viability, DLD1; assay type: cell-based; details: Homo sapiens, DLD-1; DLD1, Colon; MTT at 24 hours; Table 3
Excerpt: as §1, §2, §3

H1299 cells = assay: MTT cell viability, H1299; assay type: cell-based; details: Homo sapiens, NCI-H1299, MTT at 24 hours
Excerpt: as §1, §2, §3

FaDu cells = assay: MTT cell viability, FaDu; assay type: cell-based; details: Homo sapiens, MTT at 24 hours
Excerpt: as §1, §2, §3

LNCap cells = assay: MTT cell viability, LNCap; assay type: cell-based; details: Homo sapiens, Prostate, MTT at 24 hours, Table 3
Excerpt: as §1, §2, §3

SW480 NSP cells = assay: Anti-CSC MTT assay, SW480 non-SP (NSP) cells; assay type: cell-based; details: Homo sapiens, 48 h
Method: as §2
(§4) Hoechst Side Population: To identify and isolate side population (SP) and non-SP fractions, SW480 cells were removed from the culture dish with trypsin and EDTA, pelleted by centrifugation, washed with phosphate-buffered saline (PBS), and resuspended at 37° C. in Dulbecco's modified Eagle's medium (DMEM) containing 2% FBS and 1 rnM HEPES. The cells were then labeled with Hoechst 33342 (Invitrogen) at a concentration of 5 μg/mL. The labeled cells were incubated for 120 minutes at 37° C., either alone or with 50 μM verapamil (Sigma-Aldrich, St. Louis). After staining, the cells were suspended in Hanks' balanced saline solution (MISS; Invitrogen) containing 2% FBS and 1 mM HEPES, passed a through 40 μm mesh filter, and maintained at 4° C. until flow cytometry analysis. The Hoechst dye was excited at 350 nm, and its fluorescence was measured at two wavelengths using a 450 DF10 (450/20 nm band-pass filter) and a 675LP (675 nm long-pass edge filter) optical filter. The gating on forward and side scatter was not stringent, and only debris was excluded.
(§5) In order to test compounds for anti-CSC activity, freshly isolated CSCs (SW480 Hoechst SP cells or CD44^high FaDu cells) were exposed to a dose range (30-0.117 μM) of compound for 48 h before examining cell viability by MTT assay. IC50s were estimated by plotting the percentage of surviving cells. As shown in Table 7 and Table 8, the compounds of present invention can target cancer stem cells.

[2] = target: T1, Stat3 DNA-binding activity (Homo sapiens, UniProt P40763); assay: Stat3 DNA binding assay (EMSA), HeLa nuclear extract; assay type: biochemical; details: for inhibition % 1 × MTT IC50: compound at 1 × MTT IC50, untreated Stat3 retarded band set as 100; for inhibition % 3 × MTT IC50: compound at 3 × MTT IC50, untreated Stat3 retarded band set as 100
T1 construct: endogenous in cells; host or cells: HeLa cells (nuclear extract)
Method: STAT3 DNA Binding Assay: Electrophoretic mobility shift assay (EMSA) was performed as described by the manufacturer (Li-Cor Biosciences, Lincoln, Nebr.). Briefly, nuclear extracts were made from HeLa cells using the NucBuster Protein Extraction Kit as described by the manufacturer (EMD Biosciences, San Diego, Calif.). 5 μg of nuclear extract was pre-incubated with the indicated dose of indicated compound for 30 minutes prior to a 15-minute incubation with the IR700-labeled consensus Stat3 oligonucleotide. Samples were then electrophoresed on a polyacrylamide gel and directly scanned using the Odyssey infrared imaging system (Li-Cor Biosciences). For the enzyme-linked immunosorbent assay (ELISA), 5 μg of nuclear extract was preincubated with indicated concentration of indicated compound for 30 minutes prior to the addition of biotinylated oligo (5′-Biotin-[…]-3′). Stat3-DNA complexes were then captured on streptavidin coated 96 well plates (Pierce, Rockford, Ill.). Bound complexes were then incubated with Stat3 polyclonal antibody (Santa Cruz Biotechnology, Santa Cruz, Calif.) followed by anti-rabbit HRP conjugated secondary antibody (GE Healthcare, Pittsburgh, Pa.). Bound antibody was then visualized by addition of TMB substrate (Pierce) and absorbance measured at 450 nm.
Inhibition of Stat3 DNA-binding activity. Nuclear extracts from HeLa cells, which contain constitutively activated Stat3 as detected by phoshporylation at the tyrosine 705 residue, were used to perform Stat3 EMSAs to monitor Stat3 DNA binding activity. Nuclear extracts were incubated with indicated compound prior to incubation with IR700-labeled Stat3 consensus oligonucleotide. Binding of Stat3 to the oligonucleotide was monitored by gel electrophoresis and detection using a LiCor Odyssey infrared scanner.
To calculate the inhibition %, the density of the untreated Stat3 retarded band (control) was set as 100 and the inhibition % was the difference between the control and the relative DNA binding activity of the drug-treated samples.

SW480 Hoechst SP cells = assay: Anti-CSC MTT assay, SW480 Hoechst side population (SP) cells; assay type: cell-based; details: Homo sapiens, 48 h
Method: as §2, §4, §5

HepG2 cells = assay: MTT cell viability, HepG2; assay type: cell-based; details: Homo sapiens; HepG2, Liver; MTT at 24 hours; Table 3
Excerpt: as §1, §2, §3

CD44^low FaDu cells = assay: Anti-CSC MTT assay, CD44low FaDu cells; assay type: cell-based; details: Homo sapiens, 48 h
CD44^high FaDu cells = assay: Anti-CSC MTT assay, CD44high FaDu cells; assay type: cell-based; details: Homo sapiens, 48 h
Method: as §2
CD44^high cells were isolated by FACS according to the methods described in Ponti et al., with slight modification. Briefly, after trypsinization and recovery of cells for 30 minutes at 37° C. in growth media, cells were pelleted at 400×g and were resuspended in PBS with 2% FBS and 1 mM EDTA at 1×10^6 cells/mL. Cells were then incubated on ice with a 1:100 dilution of CD44-FITC (BD Biosicences, San Diego, Calif.) for 15 minutes. Alternatively, CD24-PE (BD Bioscences, San Diego, Calif.) (1:100) was utilized for negative selection. After washing three times, cells were resuspended at 2×10^6/mL and passed through a […] mesh before sorting
as §5

[3] = DU145, Prostate, Table 3, read-out: IC50
[4] = DU145, Table 4, read-out: IC50 (μM) DU145
[5] = HeLa, Cervix, Table 3, read-out: IC50
[6] = Hela, Table 4, read-out: IC50 (μM) Hela
[7] = H1299, Lung, Table 3, read-out: IC50
[8] = H1299, Table 4, read-out: IC50 (μM) H1299
[9] = Table 4, read-out: IC50 (μM) FaDu

T1 sequence (P40763 whole entry): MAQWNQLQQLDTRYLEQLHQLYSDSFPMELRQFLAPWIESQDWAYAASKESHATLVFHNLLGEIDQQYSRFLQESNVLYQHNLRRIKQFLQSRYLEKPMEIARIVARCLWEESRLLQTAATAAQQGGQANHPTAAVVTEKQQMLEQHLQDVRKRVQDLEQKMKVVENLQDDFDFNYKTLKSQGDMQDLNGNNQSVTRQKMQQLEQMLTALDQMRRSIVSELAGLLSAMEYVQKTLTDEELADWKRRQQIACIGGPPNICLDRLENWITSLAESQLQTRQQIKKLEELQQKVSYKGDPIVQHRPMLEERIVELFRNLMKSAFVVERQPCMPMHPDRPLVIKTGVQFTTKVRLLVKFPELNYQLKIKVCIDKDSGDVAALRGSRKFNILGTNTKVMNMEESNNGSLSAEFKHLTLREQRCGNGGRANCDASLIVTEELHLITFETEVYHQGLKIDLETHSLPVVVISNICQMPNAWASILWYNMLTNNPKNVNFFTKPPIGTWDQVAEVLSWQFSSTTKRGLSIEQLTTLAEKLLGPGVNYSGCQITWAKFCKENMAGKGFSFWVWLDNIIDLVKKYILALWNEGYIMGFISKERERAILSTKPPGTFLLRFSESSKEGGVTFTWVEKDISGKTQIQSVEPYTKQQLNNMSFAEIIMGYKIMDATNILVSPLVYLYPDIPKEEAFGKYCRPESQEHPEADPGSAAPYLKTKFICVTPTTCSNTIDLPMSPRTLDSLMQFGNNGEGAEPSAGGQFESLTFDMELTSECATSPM

IC50 (DU145 cells; [3]) [µM] | IC50 (DU145 cells; [4]) [µM] | IC50 (Panc1 cells) [µM] | IC50 (MCF7 cells) [µM] | IC50 (HCT116 cells) [µM] | IC50 (PC3 cells) [µM] | IC50 (SW480 cells) [µM] | IC50 (HeLa cells; [5]) [µM] | IC50 (HeLa cells; [6]) [µM] | IC50 (A549 cells) [µM] | IC50 (HT29 cells) [µM] | IC50 (DLD1 cells) [µM] | IC50 (H1299 cells; [7]) [µM] | IC50 (H1299 cells; [8]) [µM] | IC50 (SW480 NSP cells) [µM] | IC50 (SW480 Hoechst SP cells) [µM] | inhibition % 1 × MTT IC50 [2] [%] | inhibition % 3 × MTT IC50 [2] [%] | SMILES | IC50 (Paca2 cells) [µM] | IC50 (CD44^low FaDu cells) [µM] | other results
0.33 | 0.327 | 3.69 | 1.15 | 2.02 | 4.45 | 1.31 | 1.69 | 1.69 | 3.16 | 4.64 | 1.11 | 0.52 | 0.524 |  |  |  |  | O=C(c1ccccc1)c1cc2c(o1)C(=O)c1ccccc1C2=O [Compound 412] | 0.64 |  | IC50 [1]: ~0.75 µM
0.12 | 0.116 | 1.7 | 0.46 | 0.58 | 2.37 | 0.32 | 0.43 | 0.428 | 0.95 | 1.27 | 0.33 | 0.23 | 0.234 | 0.33 | 0.34 |  |  | CC(=O)c1cc2c(o1)C(=O)c1ccccc1C2=O [Compound 401] | 0.11 |  | IC50 (FaDu cells; Head and Neck, Table 3, read-out: IC50): 0.39 µM; IC50 (FaDu cells; [9]): 0.39 µM; IC50 (LNCap cells): 0.63 µM; inhibition of Stat3 DNA binding (in words) ([2]; HeLa nuclear extract, FIG. 6A/6B): Dose dependent inhibition of Stat3 DNA binding; also recorded: inhibits Stat3 DNA-binding activity; IC50 (HepG2 cells): 0.25 µM
0.18 | 0.164 | 1.54 | 0.46 | 0.61 | 3.04 | 0.76 | 0.8 | 0.488 | 1.06 | 1.83 | 0.64 | 0.34 | 0.317 | 0.33 | 0.34 | 39 | 63 | CC(=O)c1cc2c(o1)C(=O)c1cc(F)ccc1C2=O [Compound 418] | 0.21 |  | 
 | 1.84 |  |  |  |  |  |  | 1.67 |  |  |  |  |  |  |  | 25 | 55 | CC(O)c1cc2c(o1)C(=O)c1cc(F)ccc1C2=O (centres unmarked) [Compound 304] |  | 2.49 | IC50 (CD44^high FaDu cells): 2.41 µM
 |  |  |  |  |  |  |  |  |  |  |  |  |  | 0.51 | 0.59 | 47 | 63 | CC(=O)c1oc2c(c1CBr)C(=O)c1ccccc1C2=O [Compound 420] |  |  | IC50 (FaDu cells; [9]): 3.5 µM
 | 2.65 |  |  |  |  |  |  | 4.56 |  |  |  |  |  |  |  | 50 | 46 | C=Cc1cc2c(o1)C(=O)c1cc(F)ccc1C2=O [Compound 202] |  | 2.25 | IC50 (CD44^high FaDu cells): 2.4 µM
 | 4.9 |  |  |  |  |  |  | 7.8 |  |  |  |  | 7.2 | 1.29 | 2.06 | 6 | 25 | O=C1c2ccccc2C(=O)c2oc(C(O)c3ccccc3)cc21 (centres unmarked) [Compound 302] |  | 3.68 | IC50 (CD44^high FaDu cells): 0.68 µM
